Some results are limits rather than exact numbers.

Consider eight compounds from US20110143939A1, “QUINOXALIN-2-ONE DERIVATIVES, COMPOSITIONS WHICH PROTECT USEFUL PLANTS AND COMPRISE THESE DERIVATIVES, AND PROCESSES FOR THEIR PREPARATION AND THEIR USE” (Bayer CropScience AG, priority 2004, published 2011).

As for `Cn1c(=O)c(-c2ccccc2)nc2cc3c(cc21)OC(F)(F)O3`, the melting point was 165 °C. Compound `CS(=O)(=O)NCCn1c(=O)c(-c2cccs2)nc2ccccc21` had a melting point of 236 to 237 °C. As for `Nn1c(=O)c(-c2cccs2)nc2ccccc21`, the figure is 164 °C. As to `O=c1c(-c2cccs2)nc2ccccc2n1CC1CCC1`, the melting point stood at 103 °C.

For the compound `Cl.NCCn1c(=O)c(-c2cccs2)nc2ccccc21`, the melting point is > 250 °C. In the case of `O=c1[nH]c2cc3c(cc2nc1-c1ccccc1)OC(F)(F)O3`, the melting point lay in the range of 291 to 292 °C. `Cn1c(=S)c(-c2cccs2)nc2ccccc21` had a melting point of 113 °C. `O=c1c(-c2cccs2)nc2ccccc2n1CC1CCCO1` (centres unmarked) registered a melting point of 123 °C.

One may read the melting point as the temperature, or range, at which the solid turns liquid.
